Measured values taken from patent US12435044B2, “Pyridazinone herbicides and pyridazinone intermediates used to prepare a herbicide” (FMC Corporation, priority 2018, dated 2025).

Experiments:
Assay type in all cases: in vivo
[1] = system: waterhemp (common waterhemp, Amaranthus rudis); assay: Test C pre-/postemergence greenhouse test; details: scale 0 to 100
Summary of the method: (§1)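 Formulation: non-phytotoxic solvent mixture including surfactant. Preemergence on seeds in silt loam; postemergence on plants 2 to 18 cm tall in peat-based potting medium. Controls held alongside; visual evaluation at 13 to 21 d, 0 = no effect, 100 = complete control.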

[2] = system: foxtail, giant (Setaria faberii); assay: Test C pre-/postemergence greenhouse test; details: scale 0 to 100
Summary of the method: as §1

oat, wild (Avena fatua) = assay: Test C pre-/postemergence greenhouse test; details: Postemergence, scale 0 to 100
Summary of the method: as §1

[3] = system: wheat, winter (winter wheat, Triticum aestivum); assay: Test C pre-/postemergence greenhouse test; details: scale 0 to 100
Summary of the method: as §1

[4] = system: velvetleaf (Abutilon theophrasti); assay: Test C pre-/postemergence greenhouse test; details: scale 0 to 100
Summary of the method: as §1

kochia (Kochia scoparia) = assay: Test C pre-/postemergence greenhouse test; details: Postemergence, scale 0 to 100
Summary of the method: as §1

[5] = system: ryegrass, Italian (Lolium multiflorum); assay: Test C pre-/postemergence greenhouse test; details: scale 0 to 100
Summary of the method: as §1

[6] = system: nutsedge, yellow (Cyperus esculentus); assay: Test C pre-/postemergence greenhouse test; details: scale 0 to 100
Summary of the method: as §1

[7] = system: chickweed (common chickweed, Stellaria media); assay: Test C postemergence greenhouse test; details: scale 0 to 100
Text: Seeds of plant species selected from blackgrass (Alopecurus myosuroides), ryegrass, Italian (Lolium multiflorum), wheat, winter (winter wheat, Triticum aestivum), galium (catchweed bedstraw, Galium aparine), corn (Zea mays), crabgrass, large (Digitaria sanguinalis), foxtail, giant (Setaria faberii), johnsongrass (Sorghum halepense), lambsquarters (Chenopodium album), morningglory (Ipomoea coccinea), nutsedge, yellow (Cyperus esculentus), pigweed (Amaranthus retroflexus), ragweed (common ragweed, Ambrosia elatior), soybean (Glycine max), barnyardgrass (Echinochloa crus-galli), oilseed rape (Brassica napus), waterhemp (common waterhemp, Amaranthus rudis), pigweed, palmer (Amaranthus palmeri), kochia (Kochia scoparia), oat, wild (Avena fatua), surinam grass (Brachiaria decumbens), windgrass (Apera spica-venti), poinsettia, wild (Euphorbia heterophylla) and velvetleaf (Abutilon theophrasti) were planted into a silt loam soil and treated preemergence with test chemicals formulated in a non-phytotoxic solvent mixture which included a surfactant.
At the same time, plants selected from these crop and weed species and also chickweed (common chickweed, Stellaria media), buckwheat, wild (Polygonum convolvulus), mustard, wild (Sinapis arvensis), field poppy (Papaver rhoeas), field violet (Viola arvensis), nightshade (eastern black nightshade, Solanum ptycanthum), speedwell (bird's-eye speedwell, Veronica persica), horseweed (Conyza canadensis), cutleaf geranium (Geranium dissectum), and Canada thistle (Cirsium arvense) were planted in pots containing Redi-Earth® planting medium (Scotts Company, 14111 Scottslawn Road, Marysville, Ohio 43041) comprising spaghnum peat moss, vermiculite, wetting agent and starter nutrients and treated with postemergence applications of test chemicals formulated in the same manner. Plants ranged in height from 2 to 18 cm (1- to 4-leaf stage) for postemergence treatments. Treated plants and controls were maintained in a greenhouse for 13 to 21 d, after which time all species were compared to controls and visually evaluated. Plant response ratings, summarized in Table C-1 (postemergence) and C-2 (preemergence), are based on a scale of 0 to 100 where 0 is no effect and 100 is complete control. A dash (-) response means no test result.

## Cc1ccc2ccc(C)c(-c3c(O)c(Cl)nn(C)c3=O)c2c1 [Cpd. No. 20, 6-chloro-4-(2,7-dimethyl-1-naphthalenyl)-5-hydroxy-2-methyl-3(2H)-pyridazinone]
[1]; Postemergence, 16 g ai/ha
  Plant response rating, Waterhemp: 75
[1]; Postemergence, 31 g ai/ha
  Plant response rating, Waterhemp: 70
[1]; Postemergence, 62 g ai/ha
  Plant response rating, Waterhemp: 95
[1]; Postemergence, 125 g ai/ha
  Plant response rating, Waterhemp: 95
[1]; Preemergence, 31 g ai/ha
  Plant response rating, Waterhemp: 100
[1]; Preemergence, 61 g ai/ha
  Plant response rating, Waterhemp: 65
[1]; Preemergence, 62 g ai/ha
  Plant response rating, Waterhemp: 100
[1]; Preemergence, 125 g ai/ha
  Plant response rating, Waterhemp: 100
[2]; Postemergence, 16 g ai/ha
  Plant response rating, Foxtail, Giant: 70
[2]; Postemergence, 31 g ai/ha
  Plant response rating, Foxtail, Giant: 85
[2]; Postemergence, 62 g ai/ha
  Plant response rating, Foxtail, Giant: 85
[2]; Postemergence, 125 g ai/ha
  Plant response rating, Foxtail, Giant: 95
[2]; Preemergence, 31 g ai/ha
  Plant response rating, Foxtail, Giant: 100
[2]; Preemergence, 61 g ai/ha
  Plant response rating, Foxtail, Giant: 98
[2]; Preemergence, 62 g ai/ha
  Plant response rating, Foxtail, Giant: 100
[2]; Preemergence, 125 g ai/ha
  Plant response rating, Foxtail, Giant: 100
oat, wild (Avena fatua); 16 g ai/ha
  Plant response rating, Oat, Wild: 35
oat, wild (Avena fatua); 31 g ai/ha
  Plant response rating, Oat, Wild: 55
oat, wild (Avena fatua); 62 g ai/ha
  Plant response rating, Oat, Wild: 70
oat, wild (Avena fatua); 125 g ai/ha
  Plant response rating, Oat, Wild: 90
[3]; Postemergence, 16 g ai/ha
  Plant response rating, Wheat: 0
[3]; Postemergence, 31 g ai/ha
  Plant response rating, Wheat: 0
[3]; Postemergence, 62 g ai/ha
  Plant response rating, Wheat: 0
[3]; Postemergence, 125 g ai/ha
  Plant response rating, Wheat: 0
[3]; Preemergence, 31 g ai/ha
  Plant response rating, Wheat: 60
[3]; Preemergence, 61 g ai/ha
  Plant response rating, Wheat: 0
[3]; Preemergence, 62 g ai/ha
  Plant response rating, Wheat: 60
[3]; Preemergence, 125 g ai/ha
  Plant response rating, Wheat: 70
[4]; Postemergence, 16 g ai/ha
  Plant response rating, Velvetleaf: 70
[4]; Postemergence, 31 g ai/ha
  Plant response rating, Velvetleaf: 75
[4]; Postemergence, 62 g ai/ha
  Plant response rating, Velvetleaf: 85
[4]; Postemergence, 125 g ai/ha
  Plant response rating, Velvetleaf: 90
[4]; Preemergence, 31 g ai/ha
  Plant response rating, Velvetleaf: 100
[4]; Preemergence, 61 g ai/ha
  Plant response rating, Velvetleaf: 85
[4]; Preemergence, 62 g ai/ha
  Plant response rating, Velvetleaf: 100
[4]; Preemergence, 125 g ai/ha
  Plant response rating, Velvetleaf: 100
Kochia (Kochia scoparia); 16 g ai/ha
  Plant response rating, Kochia: 80
Kochia (Kochia scoparia); 31 g ai/ha
  Plant response rating, Kochia: 85
Kochia (Kochia scoparia); 62 g ai/ha
  Plant response rating, Kochia: 90
Kochia (Kochia scoparia); 125 g ai/ha
  Plant response rating, Kochia: 98
[5]; Postemergence, 16 g ai/ha
  Plant response rating, Ryegrass, Italian: 65
[5]; Postemergence, 31 g ai/ha
  Plant response rating, Ryegrass, Italian: 85
[5]; Postemergence, 62 g ai/ha
  Plant response rating, Ryegrass, Italian: 95
[5]; Postemergence, 125 g ai/ha
  Plant response rating, Ryegrass, Italian: 95
[5]; Preemergence, 31 g ai/ha
  Plant response rating, Ryegrass, Italian: 100
[5]; Preemergence, 61 g ai/ha
  Plant response rating, Ryegrass, Italian: 98
[5]; Preemergence, 62 g ai/ha
  Plant response rating, Ryegrass, Italian: 100
[5]; Preemergence, 125 g ai/ha
  Plant response rating, Ryegrass, Italian: 100
[6]; Postemergence, 16 g ai/ha
  Plant response rating, Nutsedge, Yellow: 90
[6]; Postemergence, 31 g ai/ha
  Plant response rating, Nutsedge, Yellow: 90
[6]; Postemergence, 62 g ai/ha
  Plant response rating, Nutsedge, Yellow: 95
[6]; Postemergence, 125 g ai/ha
  Plant response rating, Nutsedge, Yellow: 98
[6]; Preemergence, 31 g ai/ha
  Plant response rating, Nutsedge, Yellow: 95
[6]; Preemergence, 61 g ai/ha
  Plant response rating, Nutsedge, Yellow: 40
[6]; Preemergence, 62 g ai/ha
  Plant response rating, Nutsedge, Yellow: 95
[6]; Preemergence, 125 g ai/ha
  Plant response rating, Nutsedge, Yellow: 98
[7]; 16 g ai/ha
  Plant response rating, Chickweed: 95
[7]; 31 g ai/ha
  Plant response rating, Chickweed: 95
[7]; 62 g ai/ha
  Plant response rating, Chickweed: 95
[7]; 125 g ai/ha
  Plant response rating, Chickweed: 98
